# Patent US12673924B2, “Valiolamine derivatives as glucosidase inhibitors” (Emergent Product Development Gaithersburg Inc., priority 2021, dated 2026)
# Target: T1, rat sucrase (Rattus norvegicus, UniProt P23739)
# T1 construct: partially purified alpha-glucosidase from intestinal rat powder; from tissue; host or cells: rat intestinal powder
# Experiment: Intestinal alpha-glucosidase assay, sucrose substrate
# Format: biochemical
# Details: alpha-glucosidase from intestinal rat powder
# Description: Intestinal alpha-glucosidases (rat maltase and sucrase): Intestinal alpha-glucosidases act upon 1,4-alpha-glucoside bonds, breaking down disaccharides to glucose. To perform this assay, partially purified alpha-glucosidase from intestinal rat powder was incubated for 60 minutes at 37° C. with multiple dilutions of test compounds. Maltose or Sucrose respectively was then introduced as substrate to the mixture and incubated for 30 minutes at 37° C. The reaction was stopped by a 5-minute incubation at 90° C. and the resultant glucose production is detected using Sigma's Glucose GO Kit. Percent inhibition was then plotted as a function of concentration for each test compound. The IC50 was determined using a 4-PL curve fit and serves as the measure of relative inhibition of each test compound (see Table 4). Table 4 summarizes the results of IC50s for each molecule against each tested glucosidase enzyme.
# T1 sequence (P23739 whole entry): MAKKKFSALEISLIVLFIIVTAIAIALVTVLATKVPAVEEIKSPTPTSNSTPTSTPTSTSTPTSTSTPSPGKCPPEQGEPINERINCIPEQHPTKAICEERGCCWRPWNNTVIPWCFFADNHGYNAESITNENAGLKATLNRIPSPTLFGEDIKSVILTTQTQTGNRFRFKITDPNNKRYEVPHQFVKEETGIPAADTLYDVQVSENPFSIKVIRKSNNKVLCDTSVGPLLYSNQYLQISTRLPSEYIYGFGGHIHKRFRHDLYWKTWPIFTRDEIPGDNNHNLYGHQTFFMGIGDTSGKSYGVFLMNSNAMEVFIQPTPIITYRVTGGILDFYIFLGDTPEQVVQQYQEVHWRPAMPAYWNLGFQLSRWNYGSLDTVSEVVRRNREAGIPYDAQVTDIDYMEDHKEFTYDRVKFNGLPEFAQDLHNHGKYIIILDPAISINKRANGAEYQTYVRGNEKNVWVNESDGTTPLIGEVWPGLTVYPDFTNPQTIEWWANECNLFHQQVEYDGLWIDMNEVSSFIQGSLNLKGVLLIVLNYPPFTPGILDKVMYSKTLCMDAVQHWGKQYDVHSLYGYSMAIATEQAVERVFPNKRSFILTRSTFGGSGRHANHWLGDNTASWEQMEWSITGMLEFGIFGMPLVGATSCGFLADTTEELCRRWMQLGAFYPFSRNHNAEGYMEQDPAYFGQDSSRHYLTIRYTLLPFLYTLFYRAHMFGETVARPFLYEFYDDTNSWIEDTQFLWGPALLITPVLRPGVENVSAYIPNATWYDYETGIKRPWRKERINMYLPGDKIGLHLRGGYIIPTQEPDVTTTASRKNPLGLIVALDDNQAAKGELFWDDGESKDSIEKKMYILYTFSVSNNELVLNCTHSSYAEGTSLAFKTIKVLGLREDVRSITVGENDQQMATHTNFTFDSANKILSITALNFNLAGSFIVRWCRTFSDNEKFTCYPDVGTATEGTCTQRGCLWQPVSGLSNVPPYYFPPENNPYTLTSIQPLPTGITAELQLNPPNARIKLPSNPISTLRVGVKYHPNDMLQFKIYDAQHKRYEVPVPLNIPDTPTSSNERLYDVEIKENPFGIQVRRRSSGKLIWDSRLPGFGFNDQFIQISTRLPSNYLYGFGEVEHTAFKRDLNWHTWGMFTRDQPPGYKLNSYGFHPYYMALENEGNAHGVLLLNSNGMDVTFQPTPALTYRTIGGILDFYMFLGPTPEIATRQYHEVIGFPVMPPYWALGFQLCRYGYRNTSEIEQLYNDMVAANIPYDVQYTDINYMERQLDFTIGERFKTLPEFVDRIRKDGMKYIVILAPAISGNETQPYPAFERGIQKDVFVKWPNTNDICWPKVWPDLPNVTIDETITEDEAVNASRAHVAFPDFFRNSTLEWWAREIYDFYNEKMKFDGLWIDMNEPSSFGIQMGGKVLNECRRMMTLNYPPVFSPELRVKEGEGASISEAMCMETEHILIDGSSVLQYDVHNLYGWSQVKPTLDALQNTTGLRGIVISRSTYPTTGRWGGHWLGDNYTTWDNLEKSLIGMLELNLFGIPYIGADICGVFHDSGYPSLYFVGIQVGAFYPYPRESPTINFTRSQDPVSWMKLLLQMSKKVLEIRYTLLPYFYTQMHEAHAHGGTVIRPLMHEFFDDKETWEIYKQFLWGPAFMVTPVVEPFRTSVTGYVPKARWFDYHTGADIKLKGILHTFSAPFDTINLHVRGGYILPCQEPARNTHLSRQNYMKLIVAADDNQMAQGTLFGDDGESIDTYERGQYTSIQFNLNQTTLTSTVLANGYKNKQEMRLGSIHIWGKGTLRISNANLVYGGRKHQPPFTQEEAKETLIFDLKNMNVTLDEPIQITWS
row,Structure (SMILES),IC50
1,"[N-]=[N+]=Nc1ccc(NCCCCCCN[C@H]2C[C@](O)(CO)[C@@H](O)[C@H](O)[C@H]2O)c([N+](=O)[O-])c1 [Compound 2, (1S,2S,3R,4S,5S)-5-((6-((4-azido-2-nitrophenyl)amino)hexyl)amino)-1-(hydroxymethyl)cyclohexane-1,2,3,4-tetraol]",< 33.3 nM
2,"COCCCCCCCCCN[C@H]1C[C@](O)(CO)[C@@H](O)[C@H](O)[C@H]1O [Compound 3, (1S,2S,3R,4S,5S)-1-(hydroxymethyl)-5-((9-methoxynonyl)amino)cyclohexane-1,2,3,4-tetraol]",116 nM
3,"O=[N+]([O-])c1cc(-n2cnnn2)ccc1NCCCCCCN[C@H]1C[C@](O)(CO)[C@@H](O)[C@H](O)[C@H]1O [Compound 4, (1S,2S,3R,4S,5S)-1-(hydroxymethyl)-5-((6-((2-nitro-4-(1H-tetrazol-1-yl)phenyl)amino)hexyl)amino)cyclohexane-1,2,3,4-tetraol]",2930 nM
4,"O=[N+]([O-])c1cc(-n2nccn2)ccc1NCCCCCCN[C@H]1C[C@](O)(CO)[C@@H](O)[C@H](O)[C@H]1O [Compound 5, (1S,2S,3R,4S,5S)-1-(hydroxymethyl)-5-((6-((2-nitro-4-(2H-1,2,3-triazol-2-yl)phenyl)amino)hexyl)amino)cyclohexane-1,2,3,4-tetraol]",34.2 nM
5,"O=[N+]([O-])c1cc(-n2ccnn2)ccc1NCCCCCCN[C@H]1C[C@](O)(CO)[C@@H](O)[C@H](O)[C@H]1O [Compound 6, (1S,2S,3R,4S,5S)-1-(hydroxymethyl)-5-((6-((2-nitro-4-(1H-1,2,3-triazol-1-yl)phenyl)amino)hexyl)amino)cyclohexane-1,2,3,4-tetraol]",67.4 nM
6,"[N-]=[N+]=Nc1ccc(NCCCCCN[C@H]2C[C@](O)(CO)[C@@H](O)[C@H](O)[C@H]2O)c([N+](=O)[O-])c1 [Compound 9, (1S,2S,3R,4S,5S)-5-((5-((4-azido-2-nitrophenyl)amino)pentyl)amino)-1-(hydroxymethyl)cyclohexane-1,2,3,4-tetraol]",11.2 nM
7,"O=C(O)CCCCN[C@H]1C[C@](O)(CO)[C@@H](O)[C@H](O)[C@H]1O [Compound 11, 5-(((1S,2S,3R,4S,5S)-2,3,4,5-tetrahydroxy-5-(hydroxymethyl)cyclohexyl)amino)pentanoic acid]",3160 nM
8,N[C@H]1C[C@](O)(CO)[C@@H](O)[C@H](O)[C@H]1O [Valiolamine],334 nM
